# Laboratory results taken from patent publication US20250361543A1, “Instrumentation for Rapid Antimicrobial Susceptibility Testing from Bodily Fluids and Cultures” (Georgia Tech Research Corporation, priority 2022, published 2025).
# Where two headings read alike, the source gives them in different places.
# System: Escherichia coli
# Assay: Plate reader antimicrobial susceptibility test (MIC) directly from positive blood culture
# Assay type: cell-based
# Conditions: for MIC: Escherichia coli
# Method: The tests can also provide a low labor cost. Disclosed in this example are systems and methods for performing ASTs directly from positive blood cultures. De-identified hospital patient positive blood cultures were received within 8 hours of being flagged positive. ASTs were performed using various antimicrobial agents, namely seven antibiotics (ceftazidime, meropenem, tobramycin, levofloxacin, cefepime, gentamicin, and amikacin). The positive blood cultures were diluted 250-fold in cation-adjusted Mueller-Hinton Broth (CAMHB) media and 100 μL of this diluted sample was dispensed into each well of a 96-well microtiter plate, already containing 100 μL of varying concentration of one antibiotic. […] The sample-filled 96-well plate was sealed by sterile plastic film and incubated in a microtiter plate reader at 37° C. A temperature gradient of 0.5° C. was selected to prevent condensation on cover film. Each well was scanned every one hour from 400 to 895 nm with a 5 nm step starting from the time of incubation (0 hours) resulting in a total of nineteen spectra per well.
# Relating to data analysis-spectra (400 to 895 nm) vs time were acquired from each well. Spectral principal components (PCs) were computed for all wells at each time point and those explaining at least 90% of the variance were calculated. […] Determining the lowest concentration for each antibiotic that inhibited growth based on these spectral overlaps determined the MIC for each antibiotic used.
# The antibiotics concentrations are as in the plate layout and growth is measures as absorption at each excitation wavelength compares with the positive controls. Dark red indicates growth while bright red indicates no growth.
# [1] = 6 hours incubation at 37° C, positive blood culture diluted 500-fold in CAMHB, assay of FIG. 4, read-out: MIC (6 hours)
# [2] = 8 hours incubation at 37° C, positive blood culture diluted 500-fold in CAMHB, assay of FIG. 4, read-out: MIC (8 hours)
# [3] = 10 hours incubation at 37° C, positive blood culture diluted 500-fold in CAMHB, assay of FIG. 4, read-out: MIC (10 hours)
# [4] = 18 hours incubation at 37° C, positive blood culture diluted 500-fold in CAMHB, assay of FIG. 4, read-out: MIC (18 hours)
Compound,MIC [1] [µg/mL],MIC [2] [µg/mL],MIC [3] [µg/mL],MIC [4] [µg/mL],also measured
"C[C@@H](O)[C@H]1C(=O)N2C(C(=O)O)=C(S[C@@H]3CN[C@H](C(=O)N(C)C)C3)[C@H](C)[C@H]12 [Meropenem, meropenem]",≤ 0.0312,≤ 0.0312,≤ 0.0312,≤ 0.0312,–
"CC(C)(O/N=C(\C(=O)N[C@@H]1C(=O)N2C(C(=O)[O-])=C(C[n+]3ccccc3)CS[C@H]12)c1csc(N)n1)C(=O)O [Ceftazidime, ceftazidime]",0.0625,0.0625,0.0625,0.0625,–
"NCC[C@H](O)C(=O)N[C@@H]1C[C@H](N)[C@@H](O[C@H]2O[C@H](CN)[C@@H](O)[C@H](O)[C@H]2O)[C@H](O)[C@H]1O[C@H]1O[C@H](CO)[C@@H](O)[C@H](N)[C@H]1O [Amikacin, amikacin]",2,2,2,2,–
"C[C@H]1COc2c(N3CCN(C)CC3)c(F)cc3c(=O)c(C(=O)O)cn1c23 [Levofloxacin, levofloxacin]",≤ 0.0312,≤ 0.0312,≤ 0.0312,≤ 0.0312,–
"NC[C@H]1O[C@H](O[C@H]2[C@H](O)[C@@H](O[C@H]3O[C@H](CO)[C@@H](O)[C@H](N)[C@H]3O)[C@H](N)C[C@@H]2N)[C@H](N)C[C@@H]1O [Tobramycin, tobramycin]",1,1,1,1,–
gentamicin,–,–,–,–,"MIC (6 hours) (6 hours incubation at 37° C, positive blood culture diluted 500-fold in CAMHB, assay of FIG. 4): 1 µg/mL; MIC (8 hours) (8 hours incubation at 37° C, positive blood culture diluted 500-fold in CAMHB, assay of FIG. 4): 1 µg/mL; MIC (10 hours) (10 hours incubation at 37° C, positive blood culture diluted 500-fold in CAMHB, assay of FIG. 4): 1 µg/mL; MIC (18 hours) (18 hours incubation at 37° C, positive blood culture diluted 500-fold in CAMHB, assay of FIG. 4): 1 µg/mL"
"CO/N=C(\C(=O)N[C@@H]1C(=O)N2C(C(=O)[O-])=C(C[N+]3(C)CCCC3)CS[C@H]12)c1csc(N)n1 [Cefepime, cefepime]",–,–,–,–,"MIC (6 h, read-out: MIC (6 hours)): ≤ 0.0312 µg/mL; MIC (8 h, read-out: MIC (8 hours)): ≤ 0.0312 µg/mL; MIC (10 h, read-out: MIC (10 hours)): ≤ 0.0312 µg/mL; MIC (18 h, read-out: MIC (18 hours)): ≤ 0.0312 µg/mL"
